# Test results taken from US20060122153A1, “Antineoplastic ether lipid compounds with modifications at the sn-2 carbon” (priority 2003, published 2006).
# Assays:
# Type in all cases: cell-based, human
# UO-31 = experiment: NCI growth inhibition screen, renal panel; design: key to Performance as compared to ET-18-O—CH3: = means equivalent activity; + means that it appears to be significantly better (i.e., by ˜2x); < means it appears to be less active than ET18OCH3 (˜2x); a combination like =/+ or </+ means that activity is dependent upon the isomer; a combination like =/+ or </+ means that activity is dependent upon the isomer; conditions: for Performance as compared to ET-18-O—CH3: UO-31, Renal, from GI50s; for activity compared to ET-18-OCH3 (in words): UO-31 cell line, NCI screen
# Experimental: (§1) Candidates deemed suitable for in vivo testing were then synthesized in large scale quantities and some of this material was sent to the NCI's Developmental Therapeutics Program for a battery of growth inhibitory studies against various human tumor cell lines (60 cell lines, 9 different panels). The remainder of the material was used to assess in vivo efficacy using murine tumor models. Additionally, studies were conducted on the lead candidates to discern mechanism of action with particular emphasis on these agents apoptotic ability as measured by caspase 3 activity. The details (materials and methods) for these various assays are described further in the following discussion.
# (§2) Ten compounds were also sent to NCI's Drug Discovery Program for screening against numerous human tumor cell lines (9 panels total: renal ovarian, colon, CNS, non-small cell lung, leukemia, breast, melanoma, and prostate). The data are shown in FIGS. 2a-i which also include data regarding D- and L-ET-18-OCH3 (listed as L-EL and D-EL in the figures). Upon examining the data, one is struck by how 1R and 1a′S standout in comparison to the other compounds, especially for the renal, ovarian, colon, and CNS panels.
# MALME-3M = experiment: NCI growth inhibition screen, melanoma panel; design: key to Performance as compared to ET-18-O—CH3: = means equivalent activity; + means that it appears to be significantly better (i.e., by ˜2x); < means it appears to be less active than ET18OCH3 (˜2x); a combination like =/+ or </+ means that activity is dependent upon the isomer; a combination like =/+ or </+ means that activity is dependent upon the isomer; conditions: for Performance as compared to ET-18-O—CH3: MALME-3M, Melanoma, from GI50s; for activity compared to ET-18-OCH3 (in words): melanoma MALME-3M cell line, NCI screen
# Experimental: as §1, §2
# OVCAR-3 = experiment: NCI growth inhibition screen, ovarian panel; design: key: = means equivalent activity; + means that it appears to be significantly better (i.e., by ˜2x); < means it appears to be less active than ET18OCH3 (˜2x); a combination like =/+ or </+ means that activity is dependent upon the isomer; a combination like =/+ or </+ means that activity is dependent upon the isomer; conditions: OVCAR-3, Ovarian; from GI50s
# Experimental: as §1, §2
# OVCAR-8 = experiment: NCI growth inhibition screen, ovarian panel; design: key: = means equivalent activity; + means that it appears to be significantly better (i.e., by ˜2x); < means it appears to be less active than ET18OCH3 (˜2x); a combination like =/+ or </+ means that activity is dependent upon the isomer; a combination like =/+ or </+ means that activity is dependent upon the isomer; conditions: OVCAR-8, Ovarian; from GI50s
# Experimental: as §1, §2
# IGROV1 = experiment: NCI growth inhibition screen, ovarian panel; design: key: = means equivalent activity; + means that it appears to be significantly better (i.e., by ˜2x); < means it appears to be less active than ET18OCH3 (˜2x); a combination like =/+ or </+ means that activity is dependent upon the isomer; a combination like =/+ or </+ means that activity is dependent upon the isomer; conditions: from GI50s
# Experimental: as §1, §2
# BT-549 = experiment: NCI growth inhibition screen, breast panel; design: key to Performance as compared to ET-18-O—CH3: = means equivalent activity; + means that it appears to be significantly better (i.e., by ˜2x); < means it appears to be less active than ET18OCH3 (˜2x); a combination like =/+ or </+ means that activity is dependent upon the isomer; a combination like =/+ or </+ means that activity is dependent upon the isomer; conditions: for Performance as compared to ET-18-O—CH3: BT-549, Breast, from GI50s; for activity compared to ET-18-OCH3 (in words): BT-549 cell line, NCI screen
# Experimental: as §1, §2
# T-47D = experiment: NCI growth inhibition screen, breast panel; design: key to Performance as compared to ET-18-O—CH3: = means equivalent activity; + means that it appears to be significantly better (i.e., by ˜2x); < means it appears to be less active than ET18OCH3 (˜2x); a combination like =/+ or </+ means that activity is dependent upon the isomer; a combination like =/+ or </+ means that activity is dependent upon the isomer; conditions: for Performance as compared to ET-18-O—CH3: T-47D, Breast, from GI50s; for GI50: breast cancer cell line T-47D, NCI screen
# Experimental: as §1, §2
# MCF-7 = experiment: NCI growth inhibition screen, breast panel; design: key to Performance as compared to ET-18-O—CH3: = means equivalent activity; + means that it appears to be significantly better (i.e., by ˜2x); < means it appears to be less active than ET18OCH3 (˜2x); a combination like =/+ or </+ means that activity is dependent upon the isomer; a combination like =/+ or </+ means that activity is dependent upon the isomer; conditions: for Performance as compared to ET-18-O—CH3: MCF-7, Breast, from GI50s; for activity compared to ET-18-OCH3 (in words): MCF-7 cell line, NCI screen
# Experimental: as §1, §2
# HCC-2998 = experiment: NCI growth inhibition screen, colon panel; design: key: = means equivalent activity; + means that it appears to be significantly better (i.e., by ˜2x); < means it appears to be less active than ET18OCH3 (˜2x); a combination like =/+ or </+ means that activity is dependent upon the isomer; a combination like =/+ or </+ means that activity is dependent upon the isomer; conditions: HCC-2998, Colon; from GI50s
# Experimental: as §1, §2
# HCT-116 = experiment: NCI growth inhibition screen, colon panel; design: key: = means equivalent activity; + means that it appears to be significantly better (i.e., by ˜2x); < means it appears to be less active than ET18OCH3 (˜2x); a combination like =/+ or </+ means that activity is dependent upon the isomer; a combination like =/+ or </+ means that activity is dependent upon the isomer; conditions: HCT-116, Colon; from GI50s
# Experimental: as §1, §2
# HCT-15 = experiment: NCI growth inhibition screen, colon panel; design: key: = means equivalent activity; + means that it appears to be significantly better (i.e., by ˜2x); < means it appears to be less active than ET18OCH3 (˜2x); a combination like =/+ or </+ means that activity is dependent upon the isomer; a combination like =/+ or </+ means that activity is dependent upon the isomer; conditions: HCT-15, Colon; from GI50s
# Experimental: as §1, §2
SMILES,Performance as compared to ET-18-O—CH3 (UO-31),activity compared to ET-18-OCH3 (in words) (UO-31),Performance as compared to ET-18-O—CH3 (MALME-3M),activity compared to ET-18-OCH3 (in words) (MALME-3M),Performance as compared to ET-18-O—CH3 (OVCAR-3),Performance as compared to ET-18-O—CH3 (OVCAR-8),Performance as compared to ET-18-O—CH3 (IGROV1),Performance as compared to ET-18-O—CH3 (BT-549),activity compared to ET-18-OCH3 (in words) (BT-549),Performance as compared to ET-18-O—CH3 (T-47D),GI50 (T-47D) [µM],Performance as compared to ET-18-O—CH3 (MCF-7),activity compared to ET-18-OCH3 (in words) (MCF-7),Performance as compared to ET-18-O—CH3 (HCC-2998),Performance as compared to ET-18-O—CH3 (HCT-116),Performance as compared to ET-18-O—CH3 (HCT-15)
CCCCCCCCCCCCCCCCCCOC[C@@H](COP(=O)([O-])OCC[N+](C)(C)C)OS(C)(=O)=O [1a′S],64,more active,0,ET-18-OCH3 was more active,0,0,0,0,more active than ET-18-OCH3,<,≥ 15,128,more active than ET-18-OCH3,128,256,512
CCCCCCCCCCCCCCCCCCOCC(COP(=O)([O-])OCC[N+](C)(C)C)OS(C)(=O)=O (centres unmarked) [Compound 1aR],+,more active,<,ET-18-OCH3 was more active,=,=,=,+,more active than ET-18-OCH3,+,< 2.5,+,more active than ET-18-OCH3,+,+,=
